Series [1] has as its system MRSA MW2 cells. Kind of series: Bacterial membrane permeability assay (SYTOX Green). The class given is cell-based, S. aureus. Conditions: for membrane activity compared with bithionol: in words (FIGS. 5, 13, 14); for SYTOX Green membrane permeabilization: MRSA MW2 exponential-phase cells and/or persisters, in words. How it is done: Bacterial membrane permeability assay. Exponential-phase or stationary-phase S. aureus MW2 cells prepared as described above under Killing kinetics assay and Persister killing assay, respectively, were washed 3 times with the same volume of PBS. The washed cells were adjusted to OD600=0.4 with PBS. SYTOX Green (Molecular Probes, Waltham, Mass., USA) was added to 10 mL of the diluted bacterial suspension to a final concentration of 5 μM and incubated for 30 min at room temperature in the dark. 50 μl of the bacterial/SYTOX Green suspension was mixed with 50 μl of phosphate buffered saline (PBS) containing twice the desired concentrations of compounds in black, clear-bottom, 96-well plates (Corning no. 3904). Fluorescence was measured at room temperature using a spectrophotometer (SpectraMax M2, Molecular Devices) with excitation and emission wavelengths of 485 nm and 525 nm, respectively. All experiments were conducted in biological triplicate.

Series [2] concerns MRSA MW2. Kind of series: Antimicrobial activity (MIC) of bithionol analogs. The conditions noted are these: for antimicrobial activity compared with bithionol: in words (FIGS. 5, 13, 14). Format: cell-based, S. aureus. How it is done:
(§1) Minimal inhibitory concentration (MIC) assay. The MICs of antibiotics were determined by the standard micro-dilution method recommended by the Clinical and Laboratory Standards Institute. MIC assays were conducted in biological triplicate.

The subject of series [3] is stationary-phase MRSA MW2 persisters. Kind of series: Persister killing assay. The class given is cell-based, S. aureus. Conditions: for killing / viability of MRSA persisters: in words, 4 h treatment (FIGS. 5, 13, 14, 4B); for response of MRSA persisters to conventional antibiotics: 100× MIC. Here is the method:
(§2) Persister killing assay. […] Persister cells of MRSA MW2 or VRSA VRS1 were prepared by growing cultures overnight to stationary phase at 37° C. at 200 rpm and washing three times with PBS. 1 mL of ˜1×10^8 CFU/mL MRSA persisters was added to 1 mL of PBS containing a 2-fold higher concentration of the desired concentration of antibiotics in a 96-well assay block (Corning Costar 3960). For assays with daptomycin, PBS was supplemented with 50 μg/mL CaCl2. The assay block was incubated at 37° C. with shaking at 200 rpm. At various times, 400 μl samples were removed, washed once with PBS, serially diluted and spot-plated on TSA plates. Colonies were counted after overnight incubation at 37° C. to determine the titer of live cells. These experiments were conducted in triplicate.

For series [4], the system named is K. pneumoniae WGLW2. Kind of series: MIC assay (micro-dilution). The class given is cell-based, Klebsiella pneumonia. The conditions noted are these: Klebsiella pneumoniae. Here is the method:
as §1
(§3) Antimicrobial activity of each analog was tested against four MRSA strains (MW2, BF1, BF2, and BF3), Pseudomonas aeruginosa (PA14), Klebsiella pneumonia (WGLW2), and Acinetobacter baumannii (ATCC 17978).
(In broth dilution the organism is exposed to a series of concentrations in liquid medium.)

For series [5], the system named is MRSA BF1. Kind of series: MIC assay (micro-dilution). Format: cell-based, S. aureus. Conditions: Staphylococcus aureus. Here is the method:
as §1, §3

Series [6] relates to MRSA BF3. Kind of series: MIC assay (micro-dilution). Format: cell-based, S. aureus. The conditions noted are these: Staphylococcus aureus. Here is the method:
as §1, §3

The test system of series [7] is MRSA BF2. Kind of series: MIC assay (micro-dilution). Format: cell-based, S. aureus. The conditions noted are these: Staphylococcus aureus. How it is done:
as §1, §3

The subject of series [8] is MRSA MW2. Kind of series: MIC assay (micro-dilution). The class given is cell-based, S. aureus. Conditions: Staphylococcus aureus. Here is the method: as §1, §3
Series [9] deals with P. aeruginosa PA14. Kind of series: MIC assay (micro-dilution). Format: cell-based. Conditions: Pseudomonas aeruginosa. How it is done:
as §1, §3

For series [10], the system named is A. baumannii ATCC 17978. Kind of series: MIC assay (micro-dilution). The class given is cell-based. The conditions noted are these: Acinetobacter baumannii, ATCC17978. Here is the method:
as §1, §3

The subject of series [11] is S. aureus MW2. Kind of series: Membrane fluidity assay (Laurdan GP). The class given is cell-based. Conditions: 32 μg/mL (FIG. 4), in words. Here is the method:
Membrane fluidity assay. Bacterial membrane fluidity was estimated by slightly modifying previously described methods. An overnight culture of S. aureus MW2 was diluted 1:1,000 in 25 mL TSB. The diluted culture was grown to OD600˜1.5 at 37° C. with shaking at 200 rpm, followed by 10 min incubation with 10 μM Laurdan at room temperature in the dark (Sigma-Aldrich, Cat # 40227). The stained cell culture was washed with PBS 4 times and concentrated 2 times. 100 μL of the 2-fold concentrated culture was mixed with 100 μL of phosphate buffered saline (PBS) containing twice the desired concentrations of compounds in black, clear-bottom, 96-well plates (Corning no. 3904). After 1 h incubation at room temperature in the dark, the Laurdan fluorescence intensities were measured using a spectrophotometer (SpectraMax M2, Molecular Devices) with emission wavelengths of 435 nm and 490 nm upon excitation at 350 nm. The Laurdan GP was calculated using the formula GP=(I435−I490)/(I435+I490). All experiments were conducted in biological triplicate.

The test system of series [12] is 18 S. aureus strains. Kind of series: MIC assay, S. aureus strains of the panel. The class given is cell-based. The conditions noted are these: Staphylococcus aureus; range over the 18 S. aureus strains of the panel (FIG. 6). How it is done: Bacterial strains and growth conditions. S. aureus strains were grown in tryptic soy broth (TSB) (BD, Franklin Lakes, N.J., USA). E. faecium and E. faecalis strains were grown in brain-heart infusion (BHI) broth (BD, Franklin Lakes, N.J., USA), and four Gram-negative species, Klebsiella pneumoniae, Acinetobacter baumannii, Pseudomonas aeruginosa, and Enterobacter aerogenes were grown in Luria Bertani (LB) broth (BD, Franklin Lakes, N.J., USA). All bacteria were grown at 37° C. at 200 r.p.m.
as §1

For series [13], the system named is VRSA strain VRS1 persisters. Kind of series: Persister killing assay. Format: cell-based, S. aureus. The conditions noted are these: linezolid and daptomycin at 100× MIC; bithionol at indicated concentrations (FIG. 1E). How it is done: as §2
In series [14] the test system is MRSA strain MW2 persisters. Kind of series: Deep-seated mouse thigh infection model, bacterial load. The conditions noted are these: 30 mg/kg each agent, every 12 h for 3 days from 24 h post-infection. Format: in vivo. Here is the method:
Deep-seated mouse thigh infection model. […] Mice were euthanized at 96 h post-infection. […] Thighs were homogenized in PBS, serially diluted with PBS, and spot-plated on TSA plates.

≈ marks a conversion by molar mass, not a printed value. Bounds are passed on as bounds.

Turning to `COc1c(Cl)cc(Cl)cc1Sc1cc(Cl)cc(Cl)c1OC` [BT-OMe, bis-(3,5-Dichloro-2-methoxyphenyl)-sulfane], the “membrane activity compared with bithionol” value in series [1] is recorded as “complete nullification”. The “antimicrobial activity compared with bithionol” value in [2] is on record as “complete nullification”.

`Oc1c(Br)cc(Cl)cc1Sc1cc(Cl)cc(Br)c1O` [BT-oBr, 6,6′-thio-bis-(2-bromo-4-chlorophenol)]: the melting point (usually the temperature of the solid-liquid transition) was 178 to 180 °C. In addition, the “membrane activity compared with bithionol” value in [1] is on record as “similar”. Also, the “antimicrobial activity compared with bithionol” value in series [2] is on record as “similar”.

For `Oc1c(F)cc(Cl)cc1Sc1cc(Cl)cc(F)c1O` [BT-oF, 6,6′-thio-bis-(4-chloro-2-fluorophenol)], the melting point lay within 159 to 161 °C. In addition, in series [1], the “SYTOX Green membrane permeabilization” value is “permeabilize MRSA persister cell membranes” and the “membrane activity compared with bithionol” value was “slightly reduced”. The “killing / viability of MRSA persisters” value in [3] is “do not kill them”. In addition, the “antimicrobial activity compared with bithionol” value in series [2] was “slightly reduced”.

Turning to `Oc1c(Br)cc(Br)cc1Sc1cc(Br)cc(Br)c1O` [BT-opBr, 6, 6′-thio-bis-(2,4-dibromophenol)], the melting point lay within 164 to 166 °C. Moreover, the “membrane activity compared with bithionol” value in series [1] was “similar”. The “antimicrobial activity compared with bithionol” value in series [2] is “similar”.

For `Oc1c(F)cc(F)cc1Sc1cc(F)cc(F)c1O` [BT-opF, 6,6′-thio-bis-(2,4-difluorophenol)], the melting point fell in the range of 127 to 130 °C. Also, the “membrane activity compared with bithionol” value in series [1] is “slightly reduced”. The “antimicrobial activity compared with bithionol” value in series [2] is reported as “slightly reduced”.

In turn, `Oc1c(Cl)cc(Br)cc1Sc1cc(Br)cc(Cl)c1O` [BT-pBr, 6,6′-thio-bis-(4-bromo-2-chlorophenol)] gave a melting point of 200 to 202 °C. Further, the “membrane activity compared with bithionol” value in series [1] is given as “similar”. Further, in series [2], the “antimicrobial activity compared with bithionol” value was “similar”.

On to `Oc1c(Cl)cc(F)cc1Sc1cc(F)cc(Cl)c1O` [BT-pF, 6,6′-thio-bis-(2-chloro-4-fluorophenol)], for which the melting point was in the range of 140 to 142 °C. For the same molecule, in series [1], the “SYTOX Green membrane permeabilization” value is on record as “permeabilize MRSA persister cell membranes” and the “membrane activity compared with bithionol” value is on record as “slightly reduced”. Also, the “killing / viability of MRSA persisters” value in series [3] is listed as “do not kill them”. Further, in series [2], the “antimicrobial activity compared with bithionol” value is on record as “slightly reduced”.

Consider `NCCOc1c(Cl)cc(Cl)cc1Sc1cc(Cl)cc(Cl)c1OCCN` [Compound 1], for which the MIC (in general, the lowest concentration that inhibits growth of the organism) was 64 µg/mL (≈ 145 µM) in series [4]; 64 µg/mL (≈ 145 µM) in series [5]; 32 µg/mL (≈ 72.4 µM) in series [6]; 64 µg/mL (≈ 145 µM) in series [7]; 64 µg/mL (≈ 145 µM) in [8]; greater than 64 µg/mL in series [9]. The molecule further yielded an MIC in series [10] of 64 µg/mL (≈ 145 µM).

For the molecule `[O-][S+](c1cc(Cl)cc(Cl)c1O)c1cc(Cl)cc(Cl)c1O` [bitin-S], in series [1], the “SYTOX Green membrane permeabilization” value was “permeabilize MRSA persister cell membranes” and the “membrane activity compared with bithionol” value is given as “reduced membrane activity”. Also, the “killing / viability of MRSA persisters” value in series [3] is recorded as “do not kill them”. This molecule also displayed an MIC in [2] (bithionol analogs (FIGS. 5 and 13), strain not given) of 8 µg/mL (≈ 21.5 µM). The “antimicrobial activity compared with bithionol” value in [2] is listed as “decreased antimicrobial activity”. Further, in series [11], the “change in membrane fluidity (Laurdan GP)” value is recorded as “do not cause the change in membrane fluidity”.

In series [12], `CCCCCCCCCC(=O)N[C@@H](Cc1c[nH]c2ccccc12)C(=O)N[C@H](CC(N)=O)C(=O)N[C@@H](CC(=O)O)C(=O)N[C@@H]1C(=O)NCC(=O)N[C@@H](CCCN)C(=O)N[C@@H](CC(=O)O)C(=O)N[C@H](C)C(=O)N[C@@H](CC(=O)O)C(=O)NCC(=O)N[C@H](CO)C(=O)N[C@@H]([C@H](C)CC(=O)O)C(=O)N[C@@H](CC(=O)c2ccccc2N)C(=O)O[C@@H]1C` [daptomycin] gave an MIC of 0.5 to 8 µg/mL (≈ 0.309 to 4.94 µM). For the same molecule, the “SYTOX Green membrane permeabilization” value in series [1] is “does not induce rapid SYTOX Green membrane permeabilization”. In series [3], the “response of MRSA persisters to conventional antibiotics” value is recorded as “high level of tolerance” and the “killing / viability of MRSA persisters” value is reported as “does not kill MRSA persisters”. The “activity against VRSA VRS1 persisters” value in [13] is “nominal activity”.

As for `CC(=O)NC[C@H]1CN(c2ccc(N3CCOCC3)c(F)c2)C(=O)O1` [linezolid], the “response of MRSA persisters to conventional antibiotics” value in series [3] is given as “high level of tolerance”. Further, in [13], the “activity against VRSA VRS1 persisters” value is on record as “no”.

As for `CN[C@H](CC(C)C)C(=O)N[C@H]1C(=O)N[C@@H](CC(N)=O)C(=O)N[C@H]2C(=O)N[C@H]3C(=O)N[C@H](C(=O)N[C@H](C(=O)O)c4cc(O)cc(O)c4-c4cc3ccc4O)[C@H](O)c3ccc(c(Cl)c3)Oc3cc2cc(c3O[C@@H]2O[C@H](CO)[C@@H](O)[C@H](O)[C@H]2O[C@H]2C[C@](C)(N)[C@H](O)[C@H](C)O2)Oc2ccc(cc2Cl)[C@H]1O` [vancomycin], the “effect on MRSA CFUs in the mouse thigh” value in series [14] was “did not significantly reduce”.

With gentamicin, the “effect on MRSA CFUs in the mouse thigh” value in series [14] is given as “did not significantly reduce”.
